The subject of one assay is L1210. The experiment in a line: In vitro inhibition of L1210 murine leukemia (Drug sensitivity was determined by counting surviving cells after 48 hr of continuous exposure to at least 4 conc. of drug). Format: functional, cell-based. The following applies: Mus musculus, L1210, 48 h.
The test system of assay [1] is Mus musculus. Briefly: In vivo cytotoxicity against L1210 murine leukemia, expressed as median survival time of treated vs. untreated mice X 100 (CDF21 mice were given an injection of 105 cells i.p. and treated on day 1). Type of assay: functional.
The subject of assay [2] is Mus musculus. Briefly: In vivo inhibition of L1210 murine leukemia, expressed as optimal dose (CDF21 mice were given an injection of 105 cells i.p. and treated on day 1). Format: functional.

For eight compounds, IC50, T/C and Optimal dose results are on record in ChEMBL document CHEMBL1151591, “Structure-activity relationship of novel tallimustine derivatives: synthesis and antitumor activity” (Bioorg Med Chem Lett, 1996).

As a reminder, the IC50 is the concentration needed to halve the response being measured. A low value points to greater potency. For orientation: T/C means the result in the treated group divided by that in the control group, in per cent.

In turn, `C=C(Br)C(=O)Nc1nc(C(=O)Nc2cc(C(=O)Nc3cc(C(=O)NCCC(=N)N)n(C)c3)n(C)c2)cs1.Cl` came in with an IC50 in the assay on L1210 of 23.8 µg/mL.
Take `Cl.Cn1cc(NC(=O)c2cc(NC(=O)c3cc(NC(=O)c4ccc(N(CCCl)CCCl)cc4)nn3C)cn2C)cc1C(=O)NCCC(=N)N`: in the assay with L1210, the IC50 was found to be 1.39 µg/mL. Moreover, the T/C in the assay with Mus musculus [1] was 118%. The Optimal dose with Mus musculus [2] was 12.5 mg/kg.
The compound `Cl.Cn1cc(NC(=O)c2ccc(N(CCCl)CCCl)cc2)cc1C(=O)Nc1cc(C(=O)Nc2cc(C(=O)NCCC(=N)N)n(C)n2)n(C)c1` yielded a half-maximal inhibitory concentration (IC50) in the assay with L1210 of 0.03 µg/mL. The compound also displayed a T/C with Mus musculus [1] of 213%. For the same compound, the Optimal dose in the assay on Mus musculus [2] worked out at 6.25 mg/kg.
In the assay with L1210, `Cl.Cn1cc(NC(=O)c2csc(NC(=O)c3ccc(N(CCCl)CCCl)cc3)n2)cc1C(=O)Nc1cc(C(=O)NCCC(=N)N)n(C)n1` gave an IC50 of 7.2 µg/mL.
Take `Cl.Cn1cc(NC(=O)c2ccc(N(CCCl)CCCl)cc2)cc1C(=O)Nc1cc(C(=O)Nc2cc(C(=O)NCCC(=N)N)n(C)n2)n(C)n1`: the IC50 with L1210 amounted to 0.11 µg/mL. The compound also yielded a T/C with Mus musculus [1] of 259%. For the same compound, in the assay on Mus musculus [2], the Optimal dose came out at 25 mg/kg.
The like results for `C=C(Br)C(=O)Nc1cc(C(=O)Nc2cc(C(=O)Nc3cc(C(=O)NCCC(=N)N)n(C)c3)n(C)c2)n(C)n1.Cl` were, in that order, 0.15 µg/mL, 181% and 30 mg/kg.
For `Cl.Cn1cc(NC(=O)c2cc(NC(=O)c3csc(NC(=O)c4ccc(N(CCCl)CCCl)cc4)n3)cn2C)cc1C(=O)NCCC(=N)N`, in the assay on L1210, the IC50 is 32.5 µg/mL.
For the compound `Cl.Cn1cc(NC(=O)c2cc(NC(=O)c3cc(NC(=O)c4ccc(N(CCCl)CCCl)cc4)cn3C)cn2C)cc1C(=O)NCCC(=N)N` [TALLIMUSTINE CHLORIDE], the T/C in the assay with Mus musculus [1] was 175%. Further, the Optimal dose in the assay with Mus musculus [2] was 3.13 mg/kg.
